The term MIC denotes the lowest concentration found to suppress growth.

This is an account of results in US5679675A, “8-amino-10-(azabicycloalkyl)-pyrido[1,2,3-d,e][1,3,4]benzoxadiazine derivatives” (Bayer Aktiengesellschaft, priority 1994, dated 1997).

Converted amounts (≈) assume the structure as drawn. Where two headings read alike, the source gives them in different places.

What all share (assay): MIC, serial dilution method on Iso-Sensitest agar
Holding throughout (type): cell-based

Test [1] concerns Klebsiella pneumoniae. The conditions noted are these: 37° C., about 20 hours. The protocol:
(§1) The minimum inhibitory concentrations (MIC) of the compounds according to the invention were determined by serial dilution methods on Iso-Sensitest agar (Oxoid). For each test substance, a series of agar plates was prepared which contained decreasing concentrations of the active compound at, in each case, double dilution. The agar plates were inoculated with a multipoint inoculator (Denley). For inoculation, overnight cultures of the pathogens were reed which had previously been diluted such that each inoculation point contained about 10^4 colony-forming particles. The inoculated agar plates were incubated at 37° C., and the growth of microorganism was read off after about 20 hours. The MIC value (μg/ml) indicates the lowest active compound concentration at which no growth was to be detected with the naked eye.

For test [2], the system named is Micrococcus luteus. The following applies: strain 9341, 37° C., about 20 hours. On the procedure: as §1
The subject of test [3] is Acinetobacter. The conditions noted are these: strain 14068, 37° C., about 20 hours. The protocol:
as §1

In test [4] the test system is E. coli. The following applies: Escherichia coli, 37° C., about 20 hours. On the procedure: as §1
In test [5] the test system is Providencia sp. The following applies: 20 h, about 20 hours. The protocol: as §1
Test [6] deals with Staphylococcus aureus. The conditions noted are these: about 20 hours. The protocol:
as §1

The test system of test [7] is Enterococcus faecalis. The conditions noted are these: 20 h, about 20 hours. On the procedure:
as §1

The mark [8] stands for this setting: Klebsiella pneumoniae, strain 8085, read-out: MIC.
Where [9] appears, read: ATCC29213, 20 h, strain ATCC 29213, 37° C.

Take `CN1COc2c(N3C[C@H]4[C@H](N)CC=C[C@H]4C3)c(F)c(N)c3c(=O)c(C(=O)O)cn1c23` (relative stereo) [Example 11, 8-Amino-10-((1SR,2RS,6RS)-2-amino-8-azabicyclo[4.3.0]non-4-en-8-yl)-9-fluoro-3-methyl-7-oxo-2,3-dihydro-7H-pyrido[1,2,3-d,e][1,3,4]benzoxadiazine-6-carboxylic acid]: the MIC in test [1] (setting [8]) is at most 0.015 µg/mL; in test [1] (strain 63), at most 0.015 µg/mL; in test [2] it was 0.5 µg/mL (≈ 1.2 µM); in test [3] it was at most 0.015 µg/mL; in test [4] (ATCC25922, strain ATCC 25922) it was at most 0.015 µg/mL; in test [4] (strain Neumann), at most 0.015 µg/mL. Further, the MIC in test [5] (strain 12012, 37° C.) is at most 0.015 µg/mL; in test [5] (strain 12052, 37° C.), 16 µg/mL (≈ 38.5 µM); in test [6] (20 h, strain 133, 37° C.), at most 0.015 µg/mL; in test [6] (20 h, strain ICB 25701, 37° C.) it was 0.5 µg/mL (≈ 1.2 µM); in test [6] (20 h, strain ICB 25768, 37° C.), 16 µg/mL (≈ 38.5 µM); in test [6] (setting [9]), at most 0.015 µg/mL. Further, the MIC in test [7] (strain 9790, 37° C.) was at most 0.015 µg/mL; in test [7] (strain 27101, 37° C.), at most 0.015 µg/mL.

For the compound `CNC1C=CCC2CN(c3c(F)c(N)c4c(=O)c(C(=O)O)cn5c4c3OCN5C)CC21` (centres unmarked) [Example 4, 8-Amino-9-fluoro-3-methyl-10-(2-methylamino-8-azabicyclo[4.3.0]non-3-en-8-yl)-7-oxo-2,3-dihydro-7H-pyrido[1,2,3-d,e][1,3,4]benzoxadiazine-6-carboxylicacid], the MIC in test [1] (setting [8]) is 0.06 µg/mL (≈ 0.14 µM); in test [1] (strain 63), 0.06 µg/mL (≈ 0.14 µM); in test [2], at most 0.015 µg/mL; in test [3] it was at most 0.015 µg/mL; in test [4] (ATCC25922, strain ATCC 25922), 0.03 µg/mL (≈ 0.0699 µM); in test [4] (strain Neumann) it was 0.03 µg/mL (≈ 0.0699 µM). Moreover, the MIC in test [5] (strain 12012, 37° C.) is 0.06 µg/mL (≈ 0.14 µM); in test [5] (strain 12052, 37° C.), 4 µg/mL (≈ 9.31 µM); in test [6] (20 h, strain 133, 37° C.), at most 0.015 µg/mL; in test [6] (20 h, strain ICB 25701, 37° C.), 0.5 µg/mL (≈ 1.16 µM); in test [6] (20 h, strain ICB 25768, 37° C.), 1 µg/mL (≈ 2.33 µM); in test [6] (setting [9]), at most 0.015 µg/mL. Also, the MIC is 0.06 µg/mL (≈ 0.14 µM) in test [7] (strain 9790, 37° C.) and 0.06 µg/mL (≈ 0.14 µM) in test [7] (strain 27101, 37° C.).

Consider `CN1COc2c(N3CC4CC=CC(N)C4C3)c(F)c(N)c3c(=O)c(C(=O)O)cn1c23` (centres unmarked) [Example 5, 8-Amino-10-(2-amino-8-azabicyclo[4.3.0]non-3-en-8-yl)-9-fluoro-3-methyl-7-oxo-2,3-dihydro-7H-pyrido[1,2,3-d,e][1,3,4]benzoxadiazine-6-carboxylic acid], for which the MIC in test [1] (setting [8]) was 0.03 µg/mL (≈ 0.0722 µM); in test [1] (strain 63) it was 0.03 µg/mL (≈ 0.0722 µM); in test [2] it was at most 0.015 µg/mL; in test [3] it was at most 0.015 µg/mL; in test [4] (ATCC25922, strain ATCC 25922) it was at most 0.015 µg/mL; in test [4] (strain Neumann), at most 0.015 µg/mL. Further, the minimum inhibitory concentration (MIC) in test [5] (strain 12012, 37° C.) is at most 0.015 µg/mL; in test [5] (strain 12052, 37° C.) it was 2 µg/mL (≈ 4.81 µM); in test [6] (20 h, strain 133, 37° C.) it was at most 0.015 µg/mL; in test [6] (20 h, strain ICB 25701, 37° C.), 0.125 µg/mL (≈ 0.301 µM); in test [6] (20 h, strain ICB 25768, 37° C.), 0.25 µg/mL (≈ 0.602 µM); in test [6] (setting [9]), at most 0.015 µg/mL. The MIC in test [7] (strain 9790, 37° C.) was 0.03 µg/mL (≈ 0.0722 µM); in test [7] (strain 27101, 37° C.), 0.03 µg/mL (≈ 0.0722 µM).

`CC1C=CC(N)C2CN(c3c(F)c(N)c4c(=O)c(C(=O)O)cn5c4c3OCN5C)CC12` (centres unmarked) [Example 7, 8-Amino-10-(2-amino-5-methyl-8-azabicyclo[4.3.0]non-3-en-8-yl)-9-fluoro-3-methyl-7-oxo-2,3-dihydro-7-H-pyrido[1,2,3-d,e][1,3,4]benzoxadiazine-6-carboxylic acid]: the MIC in test [1] (setting [8]) is 0.03 µg/mL (≈ 0.0699 µM); in test [1] (strain 63), 0.03 µg/mL (≈ 0.0699 µM); in test [2], at most 0.015 µg/mL; in test [3] it was at most 0.015 µg/mL; in test [4] (ATCC25922, strain ATCC 25922), at most 0.015 µg/mL; in test [4] (strain Neumann), at most 0.015 µg/mL. Besides, the minimum inhibitory concentration (MIC) was 0.03 µg/mL (≈ 0.0699 µM) in test [5] (strain 12012, 37° C.); 2 µg/mL (≈ 4.66 µM) in test [5] (strain 12052, 37° C.); at most 0.015 µg/mL in test [6] (20 h, strain 133, 37° C.); 0.25 µg/mL (≈ 0.582 µM) in test [6] (20 h, strain ICB 25701, 37° C.); 0.5 µg/mL (≈ 1.16 µM) in test [6] (20 h, strain ICB 25768, 37° C.); at most 0.015 µg/mL in test [6] (setting [9]). Moreover, the MIC in test [7] (strain 9790, 37° C.) is 0.03 µg/mL (≈ 0.0699 µM); in test [7] (strain 27101, 37° C.), at most 0.015 µg/mL.
